In assay [1] the target is Cell division cycle 7-related protein kinase (Homo sapiens, UniProt O00311). Type of assay: functional.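 Note: value obtained from a kinome-wide kinase panel.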
Assay [2] addresses Cyclin-dependent kinase 19 (Homo sapiens, UniProt Q9BWU1). Description: Navigating the Kinome. Panel member name: CDC2L6. Type of assay: functional.
In assay [3] the target is Glycogen synthase kinase-3 beta (Homo sapiens, UniProt P49841). Description: GSK3beta kinase inhibitors, dose response, biochemical, microfluidics, dry powder samples, set 2 (AID 623989). Format: functional.
In assay [4] the target is Glycogen synthase kinase-3 alpha (Homo sapiens, UniProt P49840). Description: human GSK3 alpha kinase inhibition, dose response, selectivity assay for GSK3beta inhibitor project, biochemical, microfluidics, dry powder samples, set 2 (AID 623978). Format: functional.
Assay [5] addresses T1, SUMO-activating enzyme (Homo sapiens, UniProt Q9UBT2). Description: SUMOylation inhibitor hit validation, confirmation, SUMOylation inhibitor project, biochemical, AlphaScreen (AID 2018). Type of assay: functional.
Assay [6] has as its target E3 ubiquitin-protein ligase XIAP (Homo sapiens, UniProt P98170). The assay can be described thus: Counter Screen using XIAP-Bir3 for Chemical Antagonists of Bir1/2 domains of IAP-family anti-apoptotic proteins. [Related pubchem assays (depositor defined):AID1018, AID1449, AID1514, AID1638, AID1749, AID1750, AID488957, AID488963]. Background: A counterscreen serves to expose hits that act by an unwanted route or on another target.

In assay [7] the target is T1, SUMO-activating enzyme. The assay can be described thus: inhibitors of in vitro SUMOylation cascade, primary screen, biochemical, HTRF, uHTS (AID 2006). Format: protein-complex assay. Background: In TR-FRET formats the signal depends on donor and acceptor labels being close together.
The target of the next assay is T2, Bcl-2-related protein A1 (Mus musculus, UniProt Q07440).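 Note: confirmatory dose–response counterscreen on Bfl-1, used to check hits from a UBC13 polyubiquitin inhibitor campaign.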
T2 sequence (Q07440 whole entry): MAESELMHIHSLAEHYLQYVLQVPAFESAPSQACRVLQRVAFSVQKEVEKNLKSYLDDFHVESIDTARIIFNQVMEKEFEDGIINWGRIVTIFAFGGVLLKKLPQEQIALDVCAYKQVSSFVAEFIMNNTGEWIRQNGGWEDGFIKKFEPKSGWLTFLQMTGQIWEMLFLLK
Type of assay: functional.

For assay [8], the target named is T3, Ubiquitin-conjugating enzyme E2 N (Homo sapiens, UniProt P61088).
T3 sequence (P61088 whole entry): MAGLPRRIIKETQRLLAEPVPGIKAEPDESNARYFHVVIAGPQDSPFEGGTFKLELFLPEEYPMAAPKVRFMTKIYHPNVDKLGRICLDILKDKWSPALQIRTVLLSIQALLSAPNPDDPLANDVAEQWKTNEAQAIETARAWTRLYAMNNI
Type of assay: functional.

Assay [9] concerns the target T3, Ubiquitin-conjugating enzyme E2 N. Format: functional. This is another data set of the same source.
The target of assay [10] is T4, Apoptotic protease-activating factor 1 (Homo sapiens, UniProt O14727).
T4 sequence (O14727 whole entry): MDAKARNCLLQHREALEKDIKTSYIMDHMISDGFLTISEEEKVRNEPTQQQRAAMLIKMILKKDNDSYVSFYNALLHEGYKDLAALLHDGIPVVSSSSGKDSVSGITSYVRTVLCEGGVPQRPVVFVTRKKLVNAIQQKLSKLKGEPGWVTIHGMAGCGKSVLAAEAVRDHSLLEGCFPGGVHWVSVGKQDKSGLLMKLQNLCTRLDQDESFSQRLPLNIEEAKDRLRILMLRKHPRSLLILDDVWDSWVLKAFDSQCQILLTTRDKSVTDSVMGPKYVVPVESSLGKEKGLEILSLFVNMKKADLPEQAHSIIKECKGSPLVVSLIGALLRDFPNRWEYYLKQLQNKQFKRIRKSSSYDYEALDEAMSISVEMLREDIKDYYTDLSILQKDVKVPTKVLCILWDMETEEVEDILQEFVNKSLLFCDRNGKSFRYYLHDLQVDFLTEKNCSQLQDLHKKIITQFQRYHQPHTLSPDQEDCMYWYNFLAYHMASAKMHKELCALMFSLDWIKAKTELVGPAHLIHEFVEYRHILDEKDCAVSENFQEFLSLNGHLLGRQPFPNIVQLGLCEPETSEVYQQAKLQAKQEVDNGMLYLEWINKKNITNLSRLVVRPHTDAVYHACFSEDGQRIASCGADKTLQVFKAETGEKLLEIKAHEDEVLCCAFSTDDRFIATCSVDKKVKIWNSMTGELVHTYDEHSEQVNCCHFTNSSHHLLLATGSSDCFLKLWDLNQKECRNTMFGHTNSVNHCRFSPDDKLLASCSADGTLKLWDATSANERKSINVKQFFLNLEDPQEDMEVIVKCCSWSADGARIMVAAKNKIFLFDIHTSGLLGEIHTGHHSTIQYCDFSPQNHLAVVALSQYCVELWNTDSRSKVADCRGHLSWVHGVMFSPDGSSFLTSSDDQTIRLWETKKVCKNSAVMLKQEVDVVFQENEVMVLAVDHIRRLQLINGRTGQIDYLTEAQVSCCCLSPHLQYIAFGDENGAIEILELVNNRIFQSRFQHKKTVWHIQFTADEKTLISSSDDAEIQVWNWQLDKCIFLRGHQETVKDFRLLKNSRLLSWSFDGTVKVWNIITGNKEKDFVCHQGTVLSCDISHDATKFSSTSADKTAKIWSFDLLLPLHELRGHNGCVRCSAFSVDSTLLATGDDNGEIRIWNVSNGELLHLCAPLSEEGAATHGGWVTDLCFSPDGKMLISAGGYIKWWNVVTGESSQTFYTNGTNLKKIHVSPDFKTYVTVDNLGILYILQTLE
Type of assay: functional.

For assay [11], the target named is T4, Apoptotic protease-activating factor 1. The assay can be described thus: SAR analysis of small molecule inhibitors of Apaf-1 in a Fluorescent assay. Type of assay: functional. The note with it: read-out: IC50_Mean.
Assay [12] deals with 26S proteasome non-ATPase regulatory subunit 14 (Homo sapiens, UniProt O00487). The assay can be described thus: inhibition of proteasome subunit RPN11 – biochemical, fluorescence polarization, uHTS hits, confirmation (AID 602368). Format: functional.
The target in assay [13] is 72 kDa type IV collagenase (Homo sapiens, UniProt P08253). The assay can be described thus: Dose Response validation of uHTS RPN11 inhibitor hits using a MMP-2 Fluorescence assay. Format: functional.
The next assay addresses Prothrombin (Bos taurus, UniProt P00735). Description: thrombin inhibition, dose response, biochemical, fluorescence polarization, uHTS hits (AID 602369). Type of assay: functional.
A short description of assay [14]: HeLa cell cytotoxicity, dose response, cytotoxicity control for MgcRacGAP inhibitor project (AID 624300). Type of assay: functional.
In assay [15] the target is T5, Rac GTPase-activating protein 1 (Homo sapiens, UniProt Q9H0H5).
T5 sequence (Q9H0H5 whole entry): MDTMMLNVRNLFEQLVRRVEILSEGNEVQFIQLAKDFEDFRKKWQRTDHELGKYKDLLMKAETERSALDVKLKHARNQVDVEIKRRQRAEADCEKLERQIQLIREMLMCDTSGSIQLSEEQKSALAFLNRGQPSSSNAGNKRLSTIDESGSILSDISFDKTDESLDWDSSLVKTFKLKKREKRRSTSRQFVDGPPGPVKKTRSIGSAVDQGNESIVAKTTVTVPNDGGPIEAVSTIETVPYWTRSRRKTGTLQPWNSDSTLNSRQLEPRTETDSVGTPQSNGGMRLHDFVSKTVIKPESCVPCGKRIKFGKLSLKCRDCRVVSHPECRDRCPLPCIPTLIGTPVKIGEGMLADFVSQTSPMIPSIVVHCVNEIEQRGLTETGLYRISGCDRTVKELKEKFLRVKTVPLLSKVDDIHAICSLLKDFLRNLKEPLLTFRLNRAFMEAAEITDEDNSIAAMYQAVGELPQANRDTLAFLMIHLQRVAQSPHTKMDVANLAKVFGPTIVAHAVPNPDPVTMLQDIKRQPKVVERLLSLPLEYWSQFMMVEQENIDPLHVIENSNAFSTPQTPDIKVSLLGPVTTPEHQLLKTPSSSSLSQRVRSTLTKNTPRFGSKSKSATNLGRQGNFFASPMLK
Description: MgcRacGAP GTPase-activating activity inhibitors, confirmation, biochemical, ADP Hunter fluorescence, primary and confirmatory (AID 624330). Type of assay: functional.

Assay [16] has as its target T6, DNA repair protein RAD52 homolog (Homo sapiens, UniProt P43351).
T6 sequence (P43351 whole entry): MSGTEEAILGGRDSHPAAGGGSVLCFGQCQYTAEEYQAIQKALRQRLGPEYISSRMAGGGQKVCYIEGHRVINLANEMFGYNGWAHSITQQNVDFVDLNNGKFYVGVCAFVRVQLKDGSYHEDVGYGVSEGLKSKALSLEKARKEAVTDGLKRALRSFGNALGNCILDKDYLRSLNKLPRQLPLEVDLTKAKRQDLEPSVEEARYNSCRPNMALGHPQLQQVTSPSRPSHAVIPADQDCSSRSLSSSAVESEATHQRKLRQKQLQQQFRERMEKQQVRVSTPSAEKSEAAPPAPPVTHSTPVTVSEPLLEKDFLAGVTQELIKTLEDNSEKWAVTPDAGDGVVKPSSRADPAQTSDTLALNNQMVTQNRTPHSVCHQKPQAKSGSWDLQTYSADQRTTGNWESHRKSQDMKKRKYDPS
Type of assay: functional, biochemical.

Calls of active or inactive are those of the source.

T1 sequence (Q9UBE0 whole entry): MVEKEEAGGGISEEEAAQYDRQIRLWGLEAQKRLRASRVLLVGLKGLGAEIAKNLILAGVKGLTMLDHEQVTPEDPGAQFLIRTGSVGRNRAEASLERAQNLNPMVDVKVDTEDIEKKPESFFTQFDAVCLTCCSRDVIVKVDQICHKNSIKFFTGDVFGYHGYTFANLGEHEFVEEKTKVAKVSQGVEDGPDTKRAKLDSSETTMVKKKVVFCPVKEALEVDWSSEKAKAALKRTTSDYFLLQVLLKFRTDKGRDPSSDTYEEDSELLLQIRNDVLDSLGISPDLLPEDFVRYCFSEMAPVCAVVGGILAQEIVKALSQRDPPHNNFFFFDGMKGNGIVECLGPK
T1 sequence (Q9UBT2 whole entry): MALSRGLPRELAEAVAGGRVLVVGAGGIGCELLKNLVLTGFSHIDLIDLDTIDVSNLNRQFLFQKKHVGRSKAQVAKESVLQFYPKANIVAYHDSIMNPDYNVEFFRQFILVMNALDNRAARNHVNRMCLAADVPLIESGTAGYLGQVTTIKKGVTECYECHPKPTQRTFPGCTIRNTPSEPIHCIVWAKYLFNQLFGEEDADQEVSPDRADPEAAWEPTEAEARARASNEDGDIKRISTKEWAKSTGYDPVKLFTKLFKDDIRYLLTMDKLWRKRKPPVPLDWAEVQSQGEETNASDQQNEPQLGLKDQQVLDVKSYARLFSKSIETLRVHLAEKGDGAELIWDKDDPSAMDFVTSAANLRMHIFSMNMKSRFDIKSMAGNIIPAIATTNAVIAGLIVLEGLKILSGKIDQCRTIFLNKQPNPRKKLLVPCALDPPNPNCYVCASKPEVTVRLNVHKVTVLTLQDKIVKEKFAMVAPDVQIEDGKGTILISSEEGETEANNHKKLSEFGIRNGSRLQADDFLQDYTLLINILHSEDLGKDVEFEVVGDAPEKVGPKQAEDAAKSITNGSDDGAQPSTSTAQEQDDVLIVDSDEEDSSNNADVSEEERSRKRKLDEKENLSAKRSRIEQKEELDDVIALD
Chain of Cyclin-dependent kinase 19 (Q9BWU1 whole entry): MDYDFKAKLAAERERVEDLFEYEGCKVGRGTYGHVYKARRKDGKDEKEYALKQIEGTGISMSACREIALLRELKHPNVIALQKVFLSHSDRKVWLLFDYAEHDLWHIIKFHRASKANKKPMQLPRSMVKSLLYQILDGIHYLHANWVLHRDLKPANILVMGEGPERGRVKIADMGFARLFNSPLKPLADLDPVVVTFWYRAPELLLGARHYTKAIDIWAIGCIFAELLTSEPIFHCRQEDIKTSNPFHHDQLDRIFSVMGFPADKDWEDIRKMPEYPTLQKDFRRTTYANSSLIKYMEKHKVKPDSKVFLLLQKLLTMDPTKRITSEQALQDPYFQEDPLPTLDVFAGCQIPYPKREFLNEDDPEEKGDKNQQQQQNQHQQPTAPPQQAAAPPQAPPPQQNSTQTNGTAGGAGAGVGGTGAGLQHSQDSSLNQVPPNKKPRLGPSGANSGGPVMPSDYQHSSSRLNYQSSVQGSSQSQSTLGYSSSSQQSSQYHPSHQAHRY
Chain of 26S proteasome non-ATPase regulatory subunit 14 (O00487 whole entry): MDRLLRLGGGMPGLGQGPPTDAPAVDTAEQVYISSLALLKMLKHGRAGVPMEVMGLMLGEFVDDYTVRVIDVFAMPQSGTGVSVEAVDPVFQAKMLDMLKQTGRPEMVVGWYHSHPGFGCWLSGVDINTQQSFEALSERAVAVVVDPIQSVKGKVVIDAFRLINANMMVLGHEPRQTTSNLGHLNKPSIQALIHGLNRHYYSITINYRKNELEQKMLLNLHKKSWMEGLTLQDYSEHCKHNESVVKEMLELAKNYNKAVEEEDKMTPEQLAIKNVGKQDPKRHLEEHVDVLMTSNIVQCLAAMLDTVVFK
Chain of Cell division cycle 7-related protein kinase (O00311 whole entry): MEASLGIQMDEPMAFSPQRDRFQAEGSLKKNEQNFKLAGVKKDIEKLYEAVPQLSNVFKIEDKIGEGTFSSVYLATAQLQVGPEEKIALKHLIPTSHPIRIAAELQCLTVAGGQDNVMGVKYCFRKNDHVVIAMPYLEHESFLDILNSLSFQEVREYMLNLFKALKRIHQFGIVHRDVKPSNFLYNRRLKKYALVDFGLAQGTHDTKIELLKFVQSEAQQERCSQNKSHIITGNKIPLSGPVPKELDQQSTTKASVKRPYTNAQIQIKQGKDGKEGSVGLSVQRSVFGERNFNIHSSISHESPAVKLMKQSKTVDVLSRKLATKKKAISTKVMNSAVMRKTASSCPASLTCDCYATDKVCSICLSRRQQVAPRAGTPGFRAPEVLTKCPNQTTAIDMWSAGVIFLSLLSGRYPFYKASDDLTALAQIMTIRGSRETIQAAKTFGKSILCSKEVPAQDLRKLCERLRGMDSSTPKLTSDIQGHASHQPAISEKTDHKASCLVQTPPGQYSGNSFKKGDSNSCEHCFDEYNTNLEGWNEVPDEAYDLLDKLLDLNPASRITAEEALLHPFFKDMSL
Chain of 72 kDa type IV collagenase (P08253 whole entry): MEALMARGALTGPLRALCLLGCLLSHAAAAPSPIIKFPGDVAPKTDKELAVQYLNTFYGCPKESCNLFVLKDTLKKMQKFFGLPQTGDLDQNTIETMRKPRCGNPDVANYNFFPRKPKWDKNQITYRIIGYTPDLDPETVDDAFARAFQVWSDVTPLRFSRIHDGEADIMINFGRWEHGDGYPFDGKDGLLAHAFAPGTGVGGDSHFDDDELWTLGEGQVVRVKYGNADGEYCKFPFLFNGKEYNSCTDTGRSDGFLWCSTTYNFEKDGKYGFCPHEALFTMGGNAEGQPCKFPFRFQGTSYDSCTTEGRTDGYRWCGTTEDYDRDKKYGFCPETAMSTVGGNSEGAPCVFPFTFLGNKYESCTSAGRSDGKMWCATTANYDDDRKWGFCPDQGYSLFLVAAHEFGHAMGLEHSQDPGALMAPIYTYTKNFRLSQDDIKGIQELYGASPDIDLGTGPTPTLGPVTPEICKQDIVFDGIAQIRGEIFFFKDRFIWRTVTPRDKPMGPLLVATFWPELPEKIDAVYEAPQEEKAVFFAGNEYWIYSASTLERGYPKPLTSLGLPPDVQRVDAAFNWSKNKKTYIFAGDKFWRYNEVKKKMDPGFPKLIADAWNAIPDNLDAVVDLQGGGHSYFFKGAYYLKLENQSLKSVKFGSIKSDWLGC
Chain of Glycogen synthase kinase-3 alpha (P49840 whole entry): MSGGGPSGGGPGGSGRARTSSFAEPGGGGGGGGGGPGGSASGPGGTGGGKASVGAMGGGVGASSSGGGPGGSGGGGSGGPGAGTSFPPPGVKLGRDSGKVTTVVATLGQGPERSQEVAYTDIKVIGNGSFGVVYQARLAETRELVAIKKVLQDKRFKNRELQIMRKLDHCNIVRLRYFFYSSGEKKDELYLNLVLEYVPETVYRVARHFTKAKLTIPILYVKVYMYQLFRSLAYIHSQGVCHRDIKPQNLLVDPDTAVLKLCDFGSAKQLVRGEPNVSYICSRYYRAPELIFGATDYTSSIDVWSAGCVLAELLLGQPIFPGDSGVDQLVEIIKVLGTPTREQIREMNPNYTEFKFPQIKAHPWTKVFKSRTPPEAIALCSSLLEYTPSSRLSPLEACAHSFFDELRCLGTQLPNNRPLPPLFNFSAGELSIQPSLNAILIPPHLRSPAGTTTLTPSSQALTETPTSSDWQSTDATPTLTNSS
Chain of E3 ubiquitin-protein ligase XIAP (P98170 whole entry): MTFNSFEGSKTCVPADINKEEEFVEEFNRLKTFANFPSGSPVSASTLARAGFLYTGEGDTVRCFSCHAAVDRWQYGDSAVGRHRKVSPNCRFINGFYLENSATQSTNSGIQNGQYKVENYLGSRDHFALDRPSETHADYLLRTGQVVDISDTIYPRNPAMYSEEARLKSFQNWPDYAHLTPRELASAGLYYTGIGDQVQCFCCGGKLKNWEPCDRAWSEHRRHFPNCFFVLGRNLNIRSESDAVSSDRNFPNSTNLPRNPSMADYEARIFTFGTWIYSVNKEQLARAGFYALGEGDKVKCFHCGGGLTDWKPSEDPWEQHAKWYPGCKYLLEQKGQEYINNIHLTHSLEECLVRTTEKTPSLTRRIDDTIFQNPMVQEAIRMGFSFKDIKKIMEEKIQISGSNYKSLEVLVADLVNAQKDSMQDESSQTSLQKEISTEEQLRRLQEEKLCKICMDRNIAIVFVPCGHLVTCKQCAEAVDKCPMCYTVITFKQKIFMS
Chain of Glycogen synthase kinase-3 beta (P49841 whole entry): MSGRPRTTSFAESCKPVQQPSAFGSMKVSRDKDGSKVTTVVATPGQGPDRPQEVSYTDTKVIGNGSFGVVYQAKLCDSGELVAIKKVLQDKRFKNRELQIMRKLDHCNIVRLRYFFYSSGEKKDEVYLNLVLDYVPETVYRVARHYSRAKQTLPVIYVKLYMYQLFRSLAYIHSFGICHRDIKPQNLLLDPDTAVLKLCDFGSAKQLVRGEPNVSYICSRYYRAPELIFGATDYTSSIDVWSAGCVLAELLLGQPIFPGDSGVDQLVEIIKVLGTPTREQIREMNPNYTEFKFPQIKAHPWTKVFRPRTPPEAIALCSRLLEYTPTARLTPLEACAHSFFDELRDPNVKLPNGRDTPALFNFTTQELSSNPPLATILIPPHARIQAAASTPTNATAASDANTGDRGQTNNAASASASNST

In the case of `CN(C)CCNC(=O)c1ccc(-c2ccnc(Nc3cccc(F)c3)n2)cc1`, the inhibition constant Ki – broadly, the dissociation constant of the complex between target and ligand, obtained from inhibition or displacement – in assay [1] was 0.251 µM (active); in assay [2], 31.6 µM (active).
On to `COC(=O)c1ccc(CSc2ccc3nnc(-c4ccc(F)cc4)n3n2)o1`, for which the AC50 (commonly the midpoint of the concentration-response curve, whichever way the signal moves) in [3] was 0.509 µM (active); in assay [4], 1.87 µM (active).
As to `CCN(CC)CCOC(=O)c1ccc(N/C=C(/C#N)c2nc(-c3ccc(OC)c(OC)c3)cs2)cc1`, the IC50 is 7.12 µM (active) at SUMO-activating enzyme [5]; > 20 µM (inactive) in [6]; 11.7 µM (active) at SUMO-activating enzyme [7]; 3.44 µM (active) at Bcl-2-related protein A1; 3.76 µM (active) in assay [8]; 3.02 µM (active) in [9]. For the same compound, the IC50 in [10] was 4.09 µM (active); in assay [11] it was 3.93 µM (active); in assay [12], 23.2 µM (active); in assay [13], > 100 µM (inactive); on Prothrombin it was 28.7 µM (active); in assay [15], 32.4 µM (active). Further, the CC50 (usually the concentration at which the toxic effect on the cells reaches its halfway point) in assay [14] was 92.3 µM (active). Further, the AC50 in [16] is 10.9 µM (active).
